US4232035A, “Carbamate pesticidal compounds compositions and methods of use” (priority 1975, dated 1980)

Columns and labels:
Type in all cases: in vivo
[1] = system: house flies (Musca domestica, L.); assay: Fly Bait Test; parameters: key: A: excellent control; B: partial control; C: no control; conditions: 500 parts per million bait in sugar solution; twenty four hours
Protocol: (§1) Suspensions of the test compounds were prepared by dissolving one gram of compound in 50 milliliters of acetone in which had been dissolved 0.1 gram (10 percent of the weight of compound) of an alkylphenoxy polyethoxyethanol surfactant, as an emulsifying or dispersing agent. The resulting solution was mixed into 150 milliliters of water to give roughly 200 milliliters of a suspension containing the compound in finely divided form. The thus-prepared stock suspension contained 0.5 percent by weight of compound. The test concentrations in parts per million by weight employed in the tests described hereinbelow were obtained by appropriate dilutions of the stock suspension with water. The test procedures were as follows:
Four to six day old adult house flies (Musca domestica, L.) reared according to the specifications of the Chemical Specialties Manufacturing Association (Blue Book, McNair-Dorland Co., N.Y. 1954; pages 243-244, 261) under controlled conditions of 80°±5° F. and 50±5 percent relative humidity, were the test insects. The flies were immobilized by anesthetizing with carbon dioxide and twenty five immobilized individuals, males and females, were transferred to a cage consisting of a standard food strainer about five inches in diameter which was inverted over a wrapping-paper-covered surface. The test compounds were formulated by diluting the stock suspension with a 10 percent (by weight) sugar solution to give a suspension containing 500 parts of test compound per million parts of final formulation, by weight. Ten milliliters of the test formulation were added to a souffle cup containing a one-inch square of an absorbent cotton pad. This bait cup was introduced and centered on the blotting paper under the food strainer prior to admitting the anesthetized flies. The caged flies were allowed to feed on the bait for twenty four hours, at a temperature of 80°±5° F. and the relative humidity of 50±5 percent.

[2] = system: Mexican bean beetle (Epilachna varivestis, Muls.); assay: Mexican Bean Beetle Leaf Spray Test; parameters: key: A: excellent control; B: partial control; C: no control; conditions: 500 parts per million leaf spray; fourth instar larvae; three days
Protocol: as §1
Fourth instar larvae of the Mexican bean beetle (Epilachna varivestis, Muls.), reared on Tendergreen bean plants at a temperature of 80°±5° F. and 50±5 percent relative humidity, were the test insects.
The test compounds were formulated by diluting the stock suspension with water to give a suspension containing 500 parts of test compound per million parts of final formulation. Potted Tendergreen bean plants of standard height and age were placed on a revolving turntable and sprayed with 100-110 milliliters of test compound formulation by use of a DeVilbiss spray gun set at 10 psig air pressure. This application, which lasted 25 seconds, was sufficient to wet plants to run-off. As a control, 100-110 milliliters of a water-acetone-emulsifier solution containing no test compound were also sprayed on infested plants. When dry, the paired leaves were separated and each was placed in a 9 centimeter Petri dish lined with moistened filter paper. Five randomly selected larvae were introduced into each dish, and the dishes were closed. The closed dishes were labeled and held at a temperature of 80°±5° F. for three days. Although the larvae could easily consume the leaf within 24 to 48 hours, no more food was added. Larvae which were unable to move the length of the body, even upon stimulation, were considered dead.

[3] = system: two-spotted mite (Tetranychus urticae Koch); assay: Mite Foliage Spray Test; parameters: key: A: excellent control; B: partial control; C: no control; conditions: 500 parts per million foliage spray; six days
Protocol: as §1
Adults and nymphal stages of the two-spotted mite (Tetranychus urticae Koch), reared on Tendergreen bean plants at 80±5 percent relative humidity, were the test organisms. Infested leaves from a stock culture were placed on the primary leaves of two bean plants six to eight inches in height, growing in a two-and-a-half inch clay pot. 150-200 Mites, a sufficient number for testing, transferred from the excised leaves to the fresh plants in a period of twenty four hours. Following the twenty four hour transfer period, the excised leaves were removed from the infested plants. The test compounds were formulated by diluting the stock suspension with water to give a suspension containing 500 parts of test compound per million parts of final formulation. The potted plants (one pot per compound) were placed on a revolving turntable and sprayed with 100-110 milliliters of test compound formulation by use of a DeVilbiss spray gun set at 40 psig. air pressure. This application, which lasted 25 seconds, was sufficient to wet the plants to run-off. As a control, 100-110 milliliters of a water solution containing acetone and emulsifier in the same concentrations as the test compound formulation, but containing no test compound, were also sprayed on infested plants. The sprayed plants were held at 80±5 percent relative humidity for six days, after which a mortality count of motile forms was made. Microscopic examination for motile forms was made on the leaves of the test plants. Any individual which was capable of locomotion upon prodding was considered living.

[4] = system: root-knot nematode (Meloidogyne incognita var. acrita); assay: Nematode Test; parameters: key: 1: severe galling; equal to untreated control; 2: moderate galling; 3: light galling; 4: very light galling; 5: no galling; conditions: 10 ml of 500 parts per million formulation per jar of soil; cucumber indicator crop, approximately three weeks
Protocol: as §1
Infective migratory larvae of the root-knot nematode, (Meloidogyne incognita var. acrita) were reared in the greenhouse on roots of Rutgers variety tomato plant. Infected tomato plants were removed from the culture and the roots were chopped very finely. A small amount of inoculum from the roots was added to pint Mason jars containing approximately 180 cc of soil. The jars containing the inoculum and soil were capped and incubated for one week at room temperature. During this period eggs of the nematode hatched and the larvae forms migrated into the soil.
The test compounds were formulated by diluting the stock suspension with water to give a suspension containing 500 parts of test compound per million parts of final formulation. 10 milliliters of the test formulation was added to each of two jars for each dosage treated. As a control 10 milliliters of a water-acetone-emulsifier solution containing no test compound was also added to jars containing nematode larvae. The jars were capped and the contents thoroughly mixed on a kale mill for five minutes. The jars remained capped at room temperature for a period of 48 hours and the contents were then transferred to 3 inch pots. Subsequently, the pots were seeded to cucumber as an indicator crop and placed in the green house where they were cared for in the normal fashion for growing potted cucumber for approximately three weeks. These cucumber plants were then removed from the pots, the soil washed from the roots and the amount of galling visually rated.

[5] = system: southern armyworm (Prodenia eridania, (Cram.)); assay: Southern Armyworm Leaf Spray Test; parameters: key: A: excellent control; B: partial control; C: no control; conditions: 500 parts per million leaf spray; three days
Protocol: as §1
Larvae of the southern armyworm (Prodenia eridania, (Cram.)), reared on Tendergreen bean plants at a temperature of 80°±5° F. and a relative humidity of 50±5 percent, constituted the test insects.
The test compounds were formulated by diluting the stock suspension with water to give a suspension containing 500 parts of test compound per million parts of final formulation. Potted Tendergreen bean plants of standard height and age were placed on a revolving turntable and sprayed with 100-110 milliliters of test compound formulation by use of a DeVilbiss spray gun set at 10 psig air pressure. This application, which lasted 25 seconds, was sufficient to wet plants to run-off. As a control, 100-110 milliliters of a water-acetone-emulsifier solution containing no test compound were also sprayed on infested plants. When dry, the paired leaves were separated and each one was placed in a 9 centimeter Petri dish lined with moistened filter paper. Five randomly selected larvae were introduced into each dish and the dishes were closed. The closed dishes were labeled and held at 80°-85° F. for three days. Although the larvae could easily consume the whole leaf within twenty-four hours, no more food was added. Larvae which were unable to move the length of the body, even upon stimulation by prodding, were considered dead. Percent mortality was recorded for various concentration levels.

[6] = system: bean aphid (Aphis fabae Scop.); assay: Bean Aphid Foliage Spray Test; parameters: key: A: excellent control; B: partial control; C: no control; conditions: 500 parts per million foliage spray; 24 hour holding period
Protocol: as §1
Adults and nymphal stages of the bean aphid (Aphis fabae Scop.) reared on potted dwarf nasturtium plants at 65°-70° F. and 50-70 percent relative humidity, constituted the test insects. For testing purposes, the number of aphids per pot was standardized to 100-150 by trimming plants containing excess aphids.
The test compounds were formulated by diluting the stock suspension with water to give a suspension containing 500 parts of test compound per million parts of final formulation.
The potted plants (one pot per compound tested) infested with 100-150 aphids, were placed on a revolving turntable and sprayed with 100-110 milliliters of test compound formulation by use of a DeVilbiss spray gun set at 40 psig. air pressure. This application, which lasted 25 seconds, was sufficient to wet the plants to run-off. As a control, 100-110 milliliters of a water-acetone-emulsifier solution containing no test compound were also sprayed on infested plants. After spraying, the pots were placed on their sides on a sheet of white standard mimeograph paper which had been previously ruled to facilitate counting. Temperature and humidity in the test room during the 24 hour holding period were 65°-70° F. and 50-70 percent, respectively. Aphids which fell onto the paper and were unable to remain standing after being uprighted were considered dead. Aphids remaining on the plants were observed closely for movement and those which were unable to move the length of the body upon stimulation by prodding were considered dead. Percent mortality was recorded for various concentration levels.

## CN(SSc1ccc(C(C)(C)C)cc1)C(=O)ON=C1CSCCS1
[1]
  H. Fly, pesticidal activity rating: A
[2]
  M. Bean Beetle, pesticidal activity rating: A
[3]
  Mite, pesticidal activity rating: A
[4]
  Nematodes, nematocidal toxicity rating (galling): 4
[5]
  S. Armyworm, pesticidal activity rating: A
[6]
  Aphid, pesticidal activity rating: A
